The source of these data is patent US20250171420A1 (Monte Rosa Therapeutics, Inc., priority 2022, published 2025).

A value given as a limit tells only on which side of the number the result lay.

One experiment deals with T1, CK1α (Homo sapiens, UniProt P48729).
T1 construct: HEK293 clonal lines with CRISPR KI HiBiT tag on CSNK1A1
Kind of experiment: CK1α NanoBit Assay (HiBiT-tagged CSNK1A1, HEK293 clonal lines). The format is cell-based. The settings on record: HEK293 HiBiT-CSNK1A1/LgBiT cells, 24 h incubation. The method in brief:
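HEK293 clones carrying a CRISPR knock-in HiBiT tag on CSNK1A1 and stably expressing LgBiT are treated with compound for 24 hours at 37° C, 5% CO2, then read by luminescence. Response is normalized as 100*(S−N)/(P−N) against plate negative and positive controls, and DC50 values are derived.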
(In general: With HiBiT, luminescence reflects the tagged protein that the partner subunit can reach.)

For the next experiment, the target named is CRBN/DDB1 (Homo sapiens, UniProt Q96SW2). The experiment can be described thus: HTRF binding assay (displacement of Cy5-thalidomide probe from CRBN/DDB1). The settings on record: CRBN/DDB1 2.5 nM, Cy5-Thalidomide 100 nM, 30 min; geometric mean; read-out: HTRF_Thali_Disp_DR_geo_IC50. The text has this:
Binding of test compounds to CRBN/DDB1 was monitored in an HTRF assay using 1-[5-({2-[2-(2-{[2-(2,6-dioxopiperidin-3-yl)-1,3-dioxo-2,3-dihydro-1H-isoindol-4-yl]oxy}acetamido)ethoxy]ethyl}carbamoyl)pentyl]-3,3-dimethyl-2-[(1E,3E)-5-[(2E)-1,3,3-trimethyl-5-sulfo-2,3-dihydro-1H-indol-2-ylidene]penta-1,3-dien-1-yl]-3H-indol-1-ium-5-sulfonate as a fluorescent probe. In this assay, compounds displace the fluorescently labeled thalidomide-based probe bound to CRBN and fluorescence is monitored with increasing compound concentration. Assays were conducted in Greiner white 384 well HiBase plates (Cat. No 784075-25) in 10 μL total volume. A one pot detection solution of CRBN/DDB1 (2.5 nM), anti-His Terbium Cryptate Gold (1×, PerkinElmer Cat. #: 61HI2TLB), and Cy5-Thalidomide (100 nM, Tenova Cat.: T52461) was prepared in 20 mM HEPES, 20 mM NaCl, 0.2 mM TCEP, 0.2 mM EDTA, and 0.005% Tween20 was dispensed to each assay plate. Test compounds were stored in dry, ambient temperatures at 10 mM. A 10-point, 1:3 dilution series was prepared from 10 mM stock concentrations in Echo-compatible LDV plates. 10 nL of each compound dilution series was dispensed into assays wells using an Echo 650 (Labcyte inc. USA). 10 nL of 10 mM lenalidomide (Selleckchem Cat no. S1029) was transferred into the active-control wells for the assay and 10 nL of DMSO was transferred into the negative control wells. The assay was then allowed to incubate for 30 min at ambient temperature after transferring the test compounds. Plate measurements were taken on a Pherastar FSX (BMG Labtech, Germany) using the HTRF Red filter (Ex. 337 nm, em1: 620 nm, em2: 665 nm) (Flashes: 50, Integration time: 60-400 μs, Z-height: 10 mm, Ratio-multiplier: 10,000). Analysis, HTRF ratio and IC50 values were derived using KNIME analytics (KNIME Zurich) transformation and fitting within Collaborative Drug Discovery (Collaborative Drug Discovery USA) using a 4-parameter logistic fit. HTRF ratio calculation was performed using the following formula: […]
where Y represents the HTRF ratio response (as defined previously), X the compound concentration in μM, Ymin the minimum response plateau, Ymax the maximum response plateau, IC50 the concentration of agonist that gives a response half way between Ymin and Ymax and HillSlope the steepness of the family of curves. No fitting model constraints was applied on Ymin, or Ymax whilst IC50>0 and −0.5>HillSlope>−3
Ki values were derived from the geometric mean of the IC50 values using the Cheng-Prusoff transformation:
where [L] represents the concentration of fluorescent probe in μM, Kd the affinity (binding constant) of the fluorescent probe in units of μM and IC50 the concentration of agonist that gives a response halfway between Ymin and Ymax (as described in 1.2.1)
Analysis and IC50 values were derived using KNIME analytics (KNIME, Zurich) transformation and fitting within Collaborative Drug Discovery (Collaborative Drug Discovery, USA) as described in 1.2.1. Ki values were derived from the geometric mean of the IC50 values using the Cheng-Prusoff transformation as described in 2.2.2. Data was visualized in GraphPad Prism 8.1.2 (GraphPad, USA) and reported as mean and standard deviation. Microsoft Office Excel 2012 (Redmond, WA) was used for calculation of mean and standard deviation.
IC50 data are reported in Table 3 for compounds in Table 1. In Table 3 below, According to the code, A represents a IC50 value of ≤0.1 μM, B represents a IC50 value>0.1 μM and ≤1 μM, C represents an IC50 value>1 μM.
For orientation: TR-FRET usually uses a lanthanide donor and a delayed reading to cut background.

T1 sequence (P48729 whole entry): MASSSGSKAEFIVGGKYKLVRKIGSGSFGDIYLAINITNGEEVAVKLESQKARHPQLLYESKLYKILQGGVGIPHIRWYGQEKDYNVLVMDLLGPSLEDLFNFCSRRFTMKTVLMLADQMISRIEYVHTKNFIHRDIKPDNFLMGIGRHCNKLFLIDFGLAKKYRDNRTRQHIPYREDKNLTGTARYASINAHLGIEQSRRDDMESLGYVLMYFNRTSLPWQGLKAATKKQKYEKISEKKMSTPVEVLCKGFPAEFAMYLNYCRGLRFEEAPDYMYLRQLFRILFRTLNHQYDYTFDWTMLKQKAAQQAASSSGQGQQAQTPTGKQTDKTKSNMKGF
T1 sequence (Q96SW2 whole entry, further chain): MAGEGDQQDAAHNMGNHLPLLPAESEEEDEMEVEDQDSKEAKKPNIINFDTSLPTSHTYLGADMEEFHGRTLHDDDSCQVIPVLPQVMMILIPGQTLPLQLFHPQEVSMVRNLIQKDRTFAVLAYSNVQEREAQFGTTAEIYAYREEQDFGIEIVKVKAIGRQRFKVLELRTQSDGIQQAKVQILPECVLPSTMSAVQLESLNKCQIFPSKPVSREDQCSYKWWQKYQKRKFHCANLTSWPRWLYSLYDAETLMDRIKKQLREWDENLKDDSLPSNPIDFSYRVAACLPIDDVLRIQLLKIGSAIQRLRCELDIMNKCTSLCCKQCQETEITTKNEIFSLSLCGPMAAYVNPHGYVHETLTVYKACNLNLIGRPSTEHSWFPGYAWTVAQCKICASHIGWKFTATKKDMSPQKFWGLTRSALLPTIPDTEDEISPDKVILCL
T1 sequence (Q16531 2-1140 partner limits assumed): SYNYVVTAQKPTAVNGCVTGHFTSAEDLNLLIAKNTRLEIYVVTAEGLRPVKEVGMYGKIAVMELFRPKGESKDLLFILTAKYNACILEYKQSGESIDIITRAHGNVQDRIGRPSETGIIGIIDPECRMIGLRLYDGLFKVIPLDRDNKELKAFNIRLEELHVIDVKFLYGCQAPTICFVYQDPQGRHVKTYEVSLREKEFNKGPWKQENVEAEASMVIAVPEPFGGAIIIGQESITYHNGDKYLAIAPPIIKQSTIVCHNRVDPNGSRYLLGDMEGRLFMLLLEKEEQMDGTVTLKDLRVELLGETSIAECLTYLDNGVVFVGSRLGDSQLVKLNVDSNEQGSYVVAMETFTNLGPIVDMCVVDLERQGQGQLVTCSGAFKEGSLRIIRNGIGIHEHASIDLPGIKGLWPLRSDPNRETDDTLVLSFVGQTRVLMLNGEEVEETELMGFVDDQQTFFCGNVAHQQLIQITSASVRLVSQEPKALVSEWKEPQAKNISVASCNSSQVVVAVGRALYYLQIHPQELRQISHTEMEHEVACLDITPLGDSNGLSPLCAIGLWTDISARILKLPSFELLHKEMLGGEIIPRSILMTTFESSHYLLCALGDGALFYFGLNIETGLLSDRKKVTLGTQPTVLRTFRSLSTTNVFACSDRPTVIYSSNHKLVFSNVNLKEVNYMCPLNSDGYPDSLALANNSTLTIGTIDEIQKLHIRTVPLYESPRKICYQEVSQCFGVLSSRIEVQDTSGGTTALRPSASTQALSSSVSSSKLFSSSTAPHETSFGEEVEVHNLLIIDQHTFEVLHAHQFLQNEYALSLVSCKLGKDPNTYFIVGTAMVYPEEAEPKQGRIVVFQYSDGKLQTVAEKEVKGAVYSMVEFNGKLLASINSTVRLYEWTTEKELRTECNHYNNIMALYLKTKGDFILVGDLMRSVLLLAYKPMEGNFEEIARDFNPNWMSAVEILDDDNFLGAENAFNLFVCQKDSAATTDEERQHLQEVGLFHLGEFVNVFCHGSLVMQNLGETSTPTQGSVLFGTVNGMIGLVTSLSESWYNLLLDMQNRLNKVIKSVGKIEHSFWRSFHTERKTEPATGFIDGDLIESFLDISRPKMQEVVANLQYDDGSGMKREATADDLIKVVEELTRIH
Sequence of CRBN/DDB1 (Q96SW2 whole entry, species assumed): as the sequence (Q96SW2 whole entry, further chain) above
Sequence of CRBN/DDB1 (Q16531 whole entry partner, species assumed): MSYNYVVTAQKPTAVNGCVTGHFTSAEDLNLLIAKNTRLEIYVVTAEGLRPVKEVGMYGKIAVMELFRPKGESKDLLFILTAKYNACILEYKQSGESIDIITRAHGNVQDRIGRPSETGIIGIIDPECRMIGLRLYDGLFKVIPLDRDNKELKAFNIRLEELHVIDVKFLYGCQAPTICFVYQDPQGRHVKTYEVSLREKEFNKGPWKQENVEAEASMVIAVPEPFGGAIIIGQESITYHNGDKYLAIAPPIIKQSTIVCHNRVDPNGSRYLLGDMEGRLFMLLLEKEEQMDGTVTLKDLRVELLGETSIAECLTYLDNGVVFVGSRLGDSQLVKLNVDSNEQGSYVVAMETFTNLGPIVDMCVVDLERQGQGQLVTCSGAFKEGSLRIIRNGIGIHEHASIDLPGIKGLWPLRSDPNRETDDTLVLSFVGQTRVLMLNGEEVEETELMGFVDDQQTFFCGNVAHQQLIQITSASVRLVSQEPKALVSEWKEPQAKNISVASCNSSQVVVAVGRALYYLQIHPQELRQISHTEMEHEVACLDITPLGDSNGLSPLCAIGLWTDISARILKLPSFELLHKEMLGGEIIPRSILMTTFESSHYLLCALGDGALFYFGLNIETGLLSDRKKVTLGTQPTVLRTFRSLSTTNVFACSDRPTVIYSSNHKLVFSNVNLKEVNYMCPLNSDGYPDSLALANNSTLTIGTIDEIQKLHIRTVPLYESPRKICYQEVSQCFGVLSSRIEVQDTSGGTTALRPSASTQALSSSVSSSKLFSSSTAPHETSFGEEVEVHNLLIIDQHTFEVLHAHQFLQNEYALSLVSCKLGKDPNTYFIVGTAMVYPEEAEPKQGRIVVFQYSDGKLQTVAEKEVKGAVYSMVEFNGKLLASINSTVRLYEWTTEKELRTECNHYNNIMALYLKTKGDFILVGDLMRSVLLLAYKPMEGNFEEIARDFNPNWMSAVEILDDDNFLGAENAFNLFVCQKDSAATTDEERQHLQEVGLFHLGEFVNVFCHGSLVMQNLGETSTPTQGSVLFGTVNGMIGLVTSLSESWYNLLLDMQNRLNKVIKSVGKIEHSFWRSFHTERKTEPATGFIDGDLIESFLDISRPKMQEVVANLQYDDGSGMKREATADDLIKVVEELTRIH

For the compound `CNC(=O)[C@@H]1Cc2ccccc2N1C(=O)Nc1ccc2c(c1)CN(C1CCC(=O)NC1=O)C2=O` (stereo partly drawn) [Compound 326, (2S)—N^1-(2-(2,6-dioxopiperidin-3-yl)-1-oxoisoindolin-5-yl)-N^2-methylindoline-1,2-dicarboxamide], the DC50 on CK1α was 0.1 to 1 µM. The IC50 at CRBN/DDB1 was 100 to 1000 nM.
In the same order, the values of `COC[C@H]1Cc2cc(C(F)(F)F)ncc2N1C(=O)Nc1ccc2c(c1)CN(C1CCC(=O)NC1=O)C2=O` (stereo partly drawn) [Compound 295, (2R)—N-(2-(2,6-dioxopiperidin-3-yl)-1-oxoisoindolin-5-yl)-2-(methoxymethyl)-5-(trifluoromethyl)-2,3-dihydro-1H-pyrrolo[2,3-c]pyridine-1-carboxamide] are less than 0.1 µM and 100 to 1000 nM.
Regarding `COCC1c2ccc(C(F)(F)F)cc2CN1C(=O)Nc1ccc2c(c1)CN(C1CCC(=O)NC1=O)C2=O` (stereo not drawn) [Compound 324, N-(2-(2,6-dioxopiperidin-3-yl)-1-oxoisoindolin-5-yl)-1-(methoxymethyl)-5-(trifluoromethyl)isoindoline-2-carboxamide], the DC50 on CK1α is less than 0.1 µM. Besides, the IC50 at CRBN/DDB1 is 100 to 1000 nM.
In the same order, the values of `O=C1CCC(N2Cc3cc(NC(=O)N4c5ccccc5C[C@H]4COC(F)(F)F)ccc3C2=O)C(=O)N1` (stereo partly drawn) [Compound 311, (2S)—N-(2-(2,6-dioxopiperidin-3-yl)-1-oxoisoindolin-5-yl)-2-((trifluoromethoxy)methyl)indoline-1-carboxamide] are less than 0.1 µM and 100 to 1000 nM.
In the same order, the values of `CC1(c2ccccc2)CN(C(=O)Nc2ccc3c(c2)CN(C2CCC(=O)NC2=O)C3=O)C1` (stereo not drawn) [Compound 109, N-(2-(2,6-dioxopiperidin-3-yl)-1-oxoisoindolin-5-yl)-3-methyl-3-phenylazetidine-1-carboxamide] are 0.1 to 1 µM and 100 to 1000 nM.
On CK1α, `C[C@@H]1Cc2ccccc2N1C(=O)Nc1ccc2c(c1F)CN(C1CCC(=O)NC1=O)C2=O` (stereo partly drawn) [Compound 289, (2R)—N-(2-(2,6-dioxopiperidin-3-yl)-4-fluoro-1-oxoisoindolin-5-yl)-2-methylindoline-1-carboxamide] displayed a DC50 of less than 0.1 µM. Also, the IC50 at CRBN/DDB1 is 100 to 1000 nM.
In the same order, the values of `O=C1CCC(N2Cc3cc(NC(=O)N4CC5(CCC5)c5ccccc54)ccc3C2=O)C(=O)N1` (stereo not drawn) [Compound 188] are less than 0.1 µM and 100 to 1000 nM.
In the same order, the values of `O=C1CCC(N2Cc3cc(NC(=O)N4CCc5ccc(C6CCOCC6)cc54)ccc3C2=O)C(=O)N1` (stereo not drawn) [Compound 365, N-(2-(2,6-dioxopiperidin-3-yl)-1-oxoisoindolin-5-yl)-6-(tetrahydro-2H-pyran-4-yl)indoline-1-carboxamide] are 0.1 to 1 µM and 100 to 1000 nM.
In the same order, the values of `CC1c2ccccc2CCN1C(=O)Nc1ccc2c(c1)CN(C1CCC(=O)NC1=O)C2=O` (stereo not drawn) [Compound 216, N-(2-(2,6-dioxopiperidin-3-yl)-1-oxoisoindolin-5-yl)-1-methyl-3,4-dihydroisoquinoline-2(1H)-carboxamide] are less than 0.1 µM and 100 to 1000 nM.
The compound `COC[C@@H]1Cc2cc(C(F)(F)F)ncc2N1C(=O)Nc1ccc2c(c1)CN(C1CCC(=O)NC1=O)C2=O` (stereo partly drawn) [Compound 294, (2S)—N-(2-(2,6-dioxopiperidin-3-yl)-1-oxoisoindolin-5-yl)-2-(methoxymethyl)-5-(trifluoromethyl)-2,3-dihydro-1H-pyrrolo[2,3-c]pyridine-1-carboxamide] returned a DC50 at CK1α of less than 0.1 µM. In addition, the IC50 on CRBN/DDB1 was in the range of 100 to 1000 nM.
In the same order, the values of `O=C1CCC(N2Cc3cc(NC(=O)N4c5ccc(C(F)(F)F)cc5CC45COC5)ccc3C2=O)C(=O)N1` (stereo not drawn) [Compound 298] are less than 0.1 µM and 100 to 1000 nM.
In the same order, the values of `O=C1CCC(N2Cc3cc(NC(=O)N4c5ccccc5C[C@H]4COC(F)F)ccc3C2=O)C(=O)N1` (stereo partly drawn) [Compound 309, (2S)-2-((difluoromethoxy)methyl)-N-(2-(2,6-dioxopiperidin-3-yl)-1-oxoisoindolin-5-yl)indoline-1-carboxamide] are less than 0.1 µM and 100 to 1000 nM.
In the same order, the values of `CC1c2ccccc2N(C(=O)Nc2ccc3c(c2)CN(C2CCC(=O)NC2=O)C3=O)C1C` (stereo not drawn) [Compound 123, N-(2-(2,6-dioxopiperidin-3-yl)-1-oxoisoindolin-5-yl)-2,3-dimethylindoline-1-carboxamide] are less than 0.1 µM and 100 to 1000 nM.
At CK1α, `CN(C)C[C@@H]1Cc2ccccc2N1C(=O)Nc1ccc2c(c1)CN(C1CCC(=O)NC1=O)C2=O` (stereo partly drawn) [Compound 323, (2S)-2-((dimethylamino)methyl)-N-(2-(2,6-dioxopiperidin-3-yl)-1-oxoisoindolin-5-yl)indoline-1-carboxamide] had a DC50 of 0.1 to 1 µM. Also, the IC50 on CRBN/DDB1 fell in the range of 100 to 1000 nM.
In the same order, the values of `CCc1cccc2c1N(C(=O)Nc1ccc3c(c1)CN(C1CCC(=O)NC1=O)C3=O)CC2` (stereo not drawn) [Compound 162, N-(2-(2,6-dioxopiperidin-3-yl)-1-oxoisoindolin-5-yl)-7-ethylindoline-1-carboxamide] are less than 0.1 µM and 100 to 1000 nM.
In the same order, the values of `O=C1CCC(N2Cc3cc(NC(=O)N4CCc5ccc(C6CCOC6)cc54)ccc3C2=O)C(=O)N1` (stereo not drawn) [Compound 364, N-(2-(2,6-dioxopiperidin-3-yl)-1-oxoisoindolin-5-yl)-6-(tetrahydrofuran-3-yl)indoline-1-carboxamide] are 0.1 to 1 µM and 100 to 1000 nM.
In the same order, the values of `Cc1cc2c(cc1C)N(C(=O)Nc1ccc3c(c1)CN(C1CCC(=O)NC1=O)C3=O)CC2` (stereo not drawn) [Compound 171, N-(2-(2,6-dioxopiperidin-3-yl)-1-oxoisoindolin-5-yl)-5,6-dimethylindoline-1-carboxamide] are less than 0.1 µM and 100 to 1000 nM.
As for `O=C1CCC(N2Cc3cc(NC(=O)N4c5ccc(F)cc5CC45COC5)ccc3C2=O)C(=O)N1` (stereo not drawn) [Compound 306, N-(2-(2,6-dioxopiperidin-3-yl)-1-oxoisoindolin-5-yl)-5-fluorospiro[indoline-2,3′-oxetane]-1-carboxamide], the DC50 on CK1α was less than 0.1 µM. The IC50 at CRBN/DDB1 was 100 to 1000 nM.
On CK1α, `C[C@@H]1Cc2ccccc2N1C(=O)Nc1cc2c(cc1F)C(=O)N(C1CCC(=O)NC1=O)C2` (stereo partly drawn) [Compound 293, (2R)—N-(2-(2,6-dioxopiperidin-3-yl)-6-fluoro-1-oxoisoindolin-5-yl)-2-methylindoline-1-carboxamide] gave a DC50 of less than 0.1 µM. The IC50 on CRBN/DDB1 lay in the range of 100 to 1000 nM.
In the same order, the values of `CN(C)C(=O)[C@@H]1Cc2ccccc2N1C(=O)Nc1ccc2c(c1)CN(C1CCC(=O)NC1=O)C2=O` (stereo partly drawn) [Compound 327, (2S)-N1-(2-(2,6-dioxopiperidin-3-yl)-1-oxoisoindolin-5-yl)-N2,N2-dimethylindoline-1,2-dicarboxamide] are 0.1 to 1 µM and 100 to 1000 nM.
As for `O=C1CCC(N2Cc3cc(NC(=O)N4c5ccccc5C5CC54)ccc3C2=O)C(=O)N1` (stereo not drawn) [Compound 305, N-(2-(2,6-dioxopiperidin-3-yl)-1-oxoisoindolin-5-yl)-1a, 6b-dihydrocyclopropa[b]indole-2(1H)-carboxamide], the DC50 at CK1α is less than 0.1 µM. The IC50 at CRBN/DDB1 is 100 to 1000 nM.
